According to US6470889B1 (B.H.B., L.C., priority 1999, dated 2002):

Assay: Empiric porcine aortic contrast enhancement, dynamic CT at fixed mid-abdominal aortic level after i.v. injection
Type: in vivo, pig
Experimental: In order to test the mathematical solutions, a porcine study was conducted. All animal care and procedures performed were approved by the Institutional Animal Study Committee. […] Each session was separated by at least two days. Two pigs had all their sessions within a week, while the other two pigs had their first two and last sessions delays 4-5 weeks, which results in an increase in their weight to 35-40 kg in their last session. In each session, the pig was anesthetized, intubated, and underwent scanning for three or four sets of images obtained in random order. During scanning, each pig was ventilated with oxygen and low tidal volume to minimize breathing motion artifact. […] Each set of scans were 45-60 minutes apart to minimize the effect of prior contrast administration. All CT scanning was performed with a Somatom Plus-S scanner (Siemens Medical Systems, […].) using a one-second scanning time and a one-second interscan delay. Three types of injection schemes were tested: uniphasic, biphasic, and multiphasic. Biphasic injections were performed by a prior art power injector which was used in routine clinical CT scanning while uniphasic and multiphasic injections were conducted with a power injector which was invented for achieving the required protocols. This power injector was capable of delivering contrast medium in various uniphasic or multiphasic injection algorithms, as is explained in greater detail below. The multiphasic injection rate is determined by an initial injection rate and an exponential decay coefficient, as shown in FIG. 3. […] Most injections were performed with the initial injection rate of 2 mL/s. […] Three differential exponential decay coefficients (0.007, 0.017, 0.026) were tested. […] These were the three smallest discrete increments allowed in the prototype of the inventive power injector. Decay coefficient higher than 0.03 was not used because it was evident that a further increase in the coefficient would deviate further away from uniform vascular enhancements. A uniphasic injection was determined as being equivalent to a zero exponential decay coefficient where the injection rate remains constant at an initial injection rate throughout the injection duration. […] Approximately half of the total contrast volume was injected in each phase of the biphasic injections. […] Attenuation values of the aorta were measured from post-contrast scans (at the same level as the pre-contrast scans) using a circular region of interest (ROI) at the center of the aorta. Contrast enhancement was calculated as the absolute different in attenuation value between the pre- and post-contrast scans. For the data analysis, the injection duration (ID), the magnitude of peak aortic enhancement (PA), and the uniformity of enhancement (the duration of the enhancement achieved with 90% of the peak: 90% DCE) were evaluated. Means and standard deviations were also computed. The results are now explained.

[1] = 25 kg pig, 50 mL of 282 mgI/mL contrast medium, uniphasic 2 mL/sec
[2] = four pigs, 50 mL, 2 mL/s initial injection rate, decay constant 0.017
[3] = four pigs, 70 mL, 2 mL/s initial injection rate, decay constant 0.017

With `CNC(=O)c1c(I)c(NC(C)=O)c(I)c(C(=O)O)c1I.CNC[C@H](O)[C@@H](O)[C@H](O)[C@H](O)CO` [contrast medium, iothalmate meglumine] the “magnitude of the peak aortic enhancement (empiric)” value [1] was 250 HU, the “time to the peak aortic enhancement (empiric)” value [1] was 26 s and the “pattern of aortic enhancement, multiphasic vs uniphasic injection” value (50 mL and 70 mL, 2 mL/s, decay constant 0.017) was “more prolonged and uniform vascular enhancement than uniphasic injections”. The “pattern of aortic enhancement, biphasic injection” value (70 mL, 2 mL/s for 17 sec then 1.0 mL/s for 36 sec) was “two enhancement peaks with a valley in between”, the “increase of 90% DCE (duration of enhancement achieved with 90% of the peak), multiphasic vs uniphasic injection, mean” value [2] was 81% and the “reduction of peak aortic enhancement (PA), multiphasic vs uniphasic injection, mean” value [2] was 19%. For the same compound, the “decrease of peak aortic enhancement (PA), multiphasic vs uniphasic injection” value [3] was 18%, the “increase of 90% DCE, multiphasic vs uniphasic injection” value [3] was 94% and the “pattern of aortic enhancement, multiphasic exponential injection, decay constant 0.017” value (two pigs (25 kg, 40 kg), compared with decay constants 0.007 and 0.026) was “more uniform than with other injection protocols”.
